Source: patent publication US8921376B2, “Pyrrolopyridines useful as inhibitors of protein kinase” (Vertex Pharmaceuticals Incorporated, priority 2005, dated 2014)

Key:
Format in all cases: biochemical
JAK2 = JAK2 (Homo sapiens, UniProt O60674); experiment: JAK2 inhibition assay (as Example 3 with JAK-2 enzyme)
Protocol: (§1) Compounds were screened for their ability to inhibit JAK using the assay shown below. Reactions were carried out in a kinase buffer containing 100 mM HEPES (pH 7.4), 1 mM DTT, 10 mM MgCl2, 25 mM NaCl, and 0.01% BSA.
(§2) Substrate concentrations in the assay were 5 μM ATP (200 μCi/μmole ATP) and 1 μM poly(Glu)4Tyr. Reactions were carried out at 25° C. and 1 nM JAK3.
(§3) To each well of a 96 well polycarbonate plate was added 1.5 μl of a candidate JAK3 inhibitor along with 50/1 of kinase buffer containing 2 μM poly(Glu)4Tyr and 10 μM ATP. This was then mixed and 50 μl of kinase buffer containing 2 nM JAK3 enzyme was added to start the reaction. After 20 minutes at room temperature (25 C), the reaction was stopped with 50 μl of 20% trichloroacetic acid (TCA) that also contained 0.4 mM ATP. The entire contents of each well were then transferred to a 96 well glass fiber filter plate using a TomTek Cell Harvester. After washing, 60 μl of scintillation fluid was added and ^33P incorporation detected on a Perkin Elmer TopCount.
The assays were as described above in Example 3 except that JAK-2 enzyme was used, the final poly(Glu)4Tyr concentration was 15 μM, and final ATP concentration was 12 μM.

ROCK I = ROCK I (Homo sapiens, UniProt Q13464); experiment: ROCK-I inhibition assay (radioactive enzyme assay, MBP substrate)
Protocol: Compounds were screened for their ability to inhibit ROCK using a standard radioactive enzyme assay. Assays were carried out in a solution containing 100 mM HEPES (pH 7.5), 10 mM MgCl2, 25 mM NaCl, 2 mM DTT, and 1.5% DMSO. Final substrate concentrations in the assay were 13 μM [γ-^33P] ATP (25 mCi ^33P ATP/mmol ATP, Perkin Elmer, Cambridge, Mass./Sigma Chemicals, St Louis, Mo.) and 27 μM Myelin Basic Protein (MBP). Final enzyme concentration in the assay was 5 nM ROCK. Assays were carried out at room temperature. 1.5 μl of DMSO stock containing serial dilutions of the compound of the present invention (concentrations ranging from 10 μM to 2.6 nM) was placed in a 96 well plate. 50 μl of Solution 1 (100 mM HEPES (pH 7.5), 10 mM MgCl2, […]) was added to the plate. The reaction was initiated by addition of 50 μl of Solution 2 (100 mM HEPES (pH 7.5), 10 mM MgCl2, 4 mM DTT, […] and 10 nM ROCK). After 2 hours the reaction was quenched with 50 μL of 30% trichloroacetic acid (TCA, Fisher) containing 9 mM ATP. Transfer of 140 μL of the quenched reaction to a glass fiber filter plate (Corning, Cat. No. 3511) was followed by washing 3 times with 5% TCA. 50 μl of Optima Gold scintillation fluid (Perkin Elmer) was added and the plates were counted on a Top Count (Perkin Elmer). After removing mean background values for all of the data points the data was fit using Prism software to obtain a Ki(app).

JAK3 = biological target: T1, JAK3 (Homo sapiens, UniProt P52333); experiment: JAK3 inhibition assay (33P incorporation into poly(Glu)4Tyr)
T1 sequence (P52333 1-1124): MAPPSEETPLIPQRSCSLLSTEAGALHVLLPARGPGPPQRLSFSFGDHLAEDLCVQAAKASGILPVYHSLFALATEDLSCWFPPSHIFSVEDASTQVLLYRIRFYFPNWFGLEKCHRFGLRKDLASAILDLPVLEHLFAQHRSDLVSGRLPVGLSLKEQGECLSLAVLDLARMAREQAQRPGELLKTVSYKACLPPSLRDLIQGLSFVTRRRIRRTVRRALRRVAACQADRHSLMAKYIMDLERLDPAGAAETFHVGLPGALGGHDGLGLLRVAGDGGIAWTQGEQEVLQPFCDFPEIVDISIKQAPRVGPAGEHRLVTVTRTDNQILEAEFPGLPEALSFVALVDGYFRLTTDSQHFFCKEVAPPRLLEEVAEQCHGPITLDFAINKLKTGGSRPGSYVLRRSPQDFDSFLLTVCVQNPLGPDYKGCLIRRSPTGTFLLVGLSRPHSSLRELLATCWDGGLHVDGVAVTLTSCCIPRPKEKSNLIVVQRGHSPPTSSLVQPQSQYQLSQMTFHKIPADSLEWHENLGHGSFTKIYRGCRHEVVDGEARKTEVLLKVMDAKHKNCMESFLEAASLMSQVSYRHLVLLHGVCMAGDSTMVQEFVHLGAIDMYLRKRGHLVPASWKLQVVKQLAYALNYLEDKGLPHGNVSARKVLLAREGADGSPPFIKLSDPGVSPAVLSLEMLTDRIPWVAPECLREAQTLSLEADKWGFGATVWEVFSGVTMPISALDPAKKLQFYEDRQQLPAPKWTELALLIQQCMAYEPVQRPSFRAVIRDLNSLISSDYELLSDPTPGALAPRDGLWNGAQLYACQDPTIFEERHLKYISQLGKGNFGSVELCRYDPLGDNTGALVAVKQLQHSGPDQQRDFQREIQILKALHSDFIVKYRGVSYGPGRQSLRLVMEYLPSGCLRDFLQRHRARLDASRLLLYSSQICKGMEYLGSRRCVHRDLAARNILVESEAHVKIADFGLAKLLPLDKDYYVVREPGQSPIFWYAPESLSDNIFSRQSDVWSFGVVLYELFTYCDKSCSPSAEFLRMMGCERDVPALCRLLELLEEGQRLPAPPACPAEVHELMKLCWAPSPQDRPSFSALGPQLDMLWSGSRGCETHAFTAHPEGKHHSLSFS
Protocol: as §1, §2, §3

[1] = enzyme inhibition, Ki(app), Table 5
[2] = Table 6, enzyme inhibition data (Ki)

Chain of ROCK I (Q13464 whole entry): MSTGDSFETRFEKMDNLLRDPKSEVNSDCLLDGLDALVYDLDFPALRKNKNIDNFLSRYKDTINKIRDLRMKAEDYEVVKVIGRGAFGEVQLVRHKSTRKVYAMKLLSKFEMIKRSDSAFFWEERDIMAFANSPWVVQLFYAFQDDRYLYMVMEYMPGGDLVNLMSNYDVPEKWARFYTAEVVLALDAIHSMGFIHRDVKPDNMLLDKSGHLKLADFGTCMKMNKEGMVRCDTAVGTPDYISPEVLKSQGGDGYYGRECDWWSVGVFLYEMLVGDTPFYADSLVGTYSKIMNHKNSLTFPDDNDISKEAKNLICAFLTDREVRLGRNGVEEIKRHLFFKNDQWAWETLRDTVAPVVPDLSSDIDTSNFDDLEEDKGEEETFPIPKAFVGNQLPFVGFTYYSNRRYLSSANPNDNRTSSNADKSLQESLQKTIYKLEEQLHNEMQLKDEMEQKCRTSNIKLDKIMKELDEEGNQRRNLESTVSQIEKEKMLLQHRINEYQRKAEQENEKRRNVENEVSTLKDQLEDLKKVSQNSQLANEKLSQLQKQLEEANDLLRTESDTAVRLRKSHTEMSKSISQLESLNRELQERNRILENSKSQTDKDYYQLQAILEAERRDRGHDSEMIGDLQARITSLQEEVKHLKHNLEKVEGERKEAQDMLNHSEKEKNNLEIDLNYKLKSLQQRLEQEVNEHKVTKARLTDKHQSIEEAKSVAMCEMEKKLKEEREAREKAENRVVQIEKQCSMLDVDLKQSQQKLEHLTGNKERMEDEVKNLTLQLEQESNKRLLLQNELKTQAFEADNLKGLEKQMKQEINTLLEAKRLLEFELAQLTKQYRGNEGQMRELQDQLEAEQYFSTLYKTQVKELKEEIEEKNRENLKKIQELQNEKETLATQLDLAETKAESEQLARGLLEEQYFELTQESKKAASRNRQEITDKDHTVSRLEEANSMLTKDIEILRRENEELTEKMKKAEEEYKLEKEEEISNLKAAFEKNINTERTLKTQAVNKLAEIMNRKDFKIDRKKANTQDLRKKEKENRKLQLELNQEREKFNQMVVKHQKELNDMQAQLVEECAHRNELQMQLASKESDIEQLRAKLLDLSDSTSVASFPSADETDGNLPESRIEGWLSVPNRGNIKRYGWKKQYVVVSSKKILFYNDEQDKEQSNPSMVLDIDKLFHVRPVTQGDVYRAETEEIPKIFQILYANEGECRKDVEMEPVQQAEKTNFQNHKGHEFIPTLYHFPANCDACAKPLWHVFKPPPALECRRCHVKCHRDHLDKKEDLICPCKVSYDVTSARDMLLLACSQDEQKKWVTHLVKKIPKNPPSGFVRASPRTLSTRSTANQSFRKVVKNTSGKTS
Chain of JAK2 (O60674 whole entry): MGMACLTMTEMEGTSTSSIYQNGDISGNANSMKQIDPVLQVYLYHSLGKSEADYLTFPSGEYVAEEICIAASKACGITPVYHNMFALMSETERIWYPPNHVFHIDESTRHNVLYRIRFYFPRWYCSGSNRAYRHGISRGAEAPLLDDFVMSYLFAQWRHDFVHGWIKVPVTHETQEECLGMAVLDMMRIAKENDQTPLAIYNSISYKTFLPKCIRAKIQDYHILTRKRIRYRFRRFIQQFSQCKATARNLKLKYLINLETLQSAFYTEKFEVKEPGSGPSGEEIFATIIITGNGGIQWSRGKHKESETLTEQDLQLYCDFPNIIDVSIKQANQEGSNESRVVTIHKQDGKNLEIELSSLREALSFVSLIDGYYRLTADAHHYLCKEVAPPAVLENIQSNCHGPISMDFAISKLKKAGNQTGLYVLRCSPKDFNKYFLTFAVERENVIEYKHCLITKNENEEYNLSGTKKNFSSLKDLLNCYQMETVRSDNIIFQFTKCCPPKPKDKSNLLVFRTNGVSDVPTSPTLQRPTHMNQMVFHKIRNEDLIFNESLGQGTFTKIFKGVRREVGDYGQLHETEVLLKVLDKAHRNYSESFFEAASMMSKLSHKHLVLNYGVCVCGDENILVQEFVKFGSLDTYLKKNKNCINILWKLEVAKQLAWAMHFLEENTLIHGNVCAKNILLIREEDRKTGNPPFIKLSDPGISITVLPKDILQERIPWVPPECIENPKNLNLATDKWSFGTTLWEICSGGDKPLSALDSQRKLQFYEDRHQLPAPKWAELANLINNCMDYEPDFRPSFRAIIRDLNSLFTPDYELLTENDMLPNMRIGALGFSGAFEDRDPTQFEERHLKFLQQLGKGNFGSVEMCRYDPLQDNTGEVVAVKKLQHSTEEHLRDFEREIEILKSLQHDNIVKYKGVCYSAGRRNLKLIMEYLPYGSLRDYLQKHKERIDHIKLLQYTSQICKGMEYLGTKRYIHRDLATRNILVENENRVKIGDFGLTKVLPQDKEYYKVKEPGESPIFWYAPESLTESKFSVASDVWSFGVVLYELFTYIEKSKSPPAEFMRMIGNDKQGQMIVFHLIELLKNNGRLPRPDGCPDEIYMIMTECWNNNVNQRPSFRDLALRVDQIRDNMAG

Row | Compound | Ki (JAK2; enzyme inhibition, Table 5) [nM] | Ki (ROCK I; [1]) [nM] | Ki (JAK3; enzyme inhibition, Table 5) [nM] | Ki (JAK2; [2]) [nM] | Ki (ROCK I; [2]) [nM] | Ki (JAK3; [2]) [nM]
1 | C[C@H](Nc1cccc(-c2ccnc3[nH]ccc23)n1)C(=O)NCC(F)(F)F [compound 122, (S)-2-(6-(1H-pyrrolo[2,3b]pyridin-4-yl)pyridin-2-ylamino)-N-(2,2,2-trifluoroethyl)propanamide] | 500 to 5000 | 500 to 5000 | < 500 |  |  | 
2 | O=C(NCC(F)(F)F)c1cc(-c2ccnc3[nH]ccc23)c[nH]1 [compound 259] |  |  |  | < 500 | < 500 | < 500
3 | N#CCCN(CC1CC1)C(=O)c1csc(-c2ccnc3[nH]ccc23)n1 [compound 409] |  |  |  | < 500 | < 500 | < 500
4 | CN(C)C(=O)c1cccc(-c2ccnc3[nH]ccc23)c1 [compound 92, N,N-Dimethyl-3-(1H-pyrrolo[2,3-b]pyridin-4-yl)-benzamide] | 500 to 5000 | 500 to 5000 | 500 to 5000 |  |  | 
5 | O=C(NCCC(F)(F)F)c1ccccc1-c1ccnc2[nH]ccc12 [compound 254] |  |  |  | > 5000 | > 4000 | > 5000
6 | O=C(O)c1cc(-c2ccnc3[nH]ccc23)c[nH]1 [compound 274] |  |  |  | 500 to 5000 | > 4000 | < 500
7 | Cn1cc(-c2c(Cl)cnc3[nH]ccc23)cn1 [compound 70, 5-Chloro-4-(1-methyl-1H-pyrazol-4-yl)-1H-pyrrolo[2,3b]pyridine] | < 500 | 500 to 5000 | < 500 |  |  | 
8 | CC1CCCC(Nc2c(Cl)cnc3[nH]ccc23)C1 (stereo not drawn) [compound 161] |  |  |  | < 500 | < 500 | < 500
9 | O=C(Nc1cccc(-c2ccnc3[nH]ccc23)n1)c1ccccc1 [compound 100, N-(6-(1H-pyrrolo[2,3-b]pyridine-4-yl)pyridin-2-yl)benzamide] | < 500 | 500 to 5000 | 500 to 5000 |  |  | 
10 | C=CCN(C(=O)c1cc(-c2c(F)cnc3[nH]ccc23)c[nH]1)C(C)c1ccccc1 (stereo not drawn) [compound 385] |  |  |  | < 500 | 500 to 5000 | < 500
11 | CS(=O)(=O)N1CC[C@H](Nc2c(Cl)cnc3[nH]ccc23)C1 [compound 185] |  |  |  | < 500 | > 4000 | < 500
12 | O=C(Cc1nc(-c2ccnc3[nH]ccc23)ncc1F)NCC(F)(F)F [compound 266] |  |  |  | < 500 | 500 to 5000 | 500 to 5000
13 | C=CCN(C(=O)c1csc(-c2ccnc3[nH]ccc23)n1)[C@@H](C)c1ccccc1 [compound 408] |  |  |  | < 500 | < 500 | < 500
14 | CCCCN(CCC#N)C(=O)c1cc(-c2ccnc3[nH]ccc23)c[nH]1 [compound 303] |  |  |  | < 500 | < 500 | < 500
15 | O=C(c1cc(-c2c(F)cnc3[nH]ccc23)c[nH]1)N(CCC(F)(F)F)CC1CC1 [compound 390] |  |  |  | < 500 | 500 to 5000 | < 500
16 | c1cc(CN2CCOCC2)cc(-c2ccnc3[nH]ccc23)c1 [compound 88, 4-(3-Morpholin-4-ylmethyl-phenyl)-1H-pyrrolo[2,3-b]pyridine] | 500 to 5000 | 500 to 5000 | 500 to 5000 |  |  | 

Now from value to compound:

Row | Ki (JAK2; enzyme inhibition, Table 5) [nM] | Ki (ROCK I; [1]) [nM] | Ki (JAK3; enzyme inhibition, Table 5) [nM] | Ki (JAK2; [2]) [nM] | Ki (ROCK I; [2]) [nM] | Ki (JAK3; [2]) [nM] | Compound
17 | 500 to 5000 | 500 to 5000 | < 500 |  |  |  | C=C(c1c(Cl)cnc2[nH]ccc12)C1CCCCC1 [compound 69]
18 |  |  |  | < 500 | < 500 | < 500 | Clc1cnc2[nH]ccc2c1-c1ccco1 [compound 136]
19 |  |  |  | < 500 | < 500 | < 500 | CCCCN(CCC#N)C(=O)c1cc(-c2c(F)cnc3[nH]ccc23)c[nH]1 [compound 397]
20 |  |  |  | < 500 | > 4000 | < 500 | O=S(=O)(C1CC1)N1CC[C@@H](Nc2c(Cl)cnc3[nH]ccc23)C1 [compound 183]
21 |  |  |  | 500 to 5000 | > 4000 | < 500 | O=C(NCC(F)(F)F)[C@@H]1CCCN1c1nc(-c2ccnc3[nH]ccc23)ncc1F [compound 199]
22 | < 500 | < 500 | < 500 |  |  |  | CC(C)(C)OC(=O)N1CC=C(c2ccnc3[nH]ccc23)CC1 [compound 44]
23 | < 500 | < 500 | 500 to 5000 |  |  |  | N#CCC(=O)N1CC=C(c2ccnc3[nH]ccc23)CC1 [compound 66]
24 |  |  |  | < 500 | 500 to 5000 | < 500 | C=CCN(CC=C)C(=O)c1cc(-c2c(Cl)cnc3[nH]ccc23)c[nH]1 [compound 330]
25 | < 500 | < 500 | 500 to 5000 |  |  |  | O=C(CC(F)(F)F)N1CC=C(c2ccnc3[nH]ccc23)CC1 [compound 65]
26 | 500 to 5000 | 500 to 5000 | 500 to 5000 |  |  |  | CC(C)(C(=O)O)c1cccc(-c2ccnc3[nH]ccc23)n1 [compound 96, 2-(6-(1H-pyrrolo[2,3-b]pyridin-4-yl)pyridin-2-yl)-2-methylpropanoic acid]
27 | < 500 | < 500 | < 500 |  |  |  | N#CCc1cccc(-c2ccnc3[nH]ccc23)c1 [compound 63, [3-(1H-Pyrrolo[2,3-b]pyridin-4-yl)-phenyl]-acetonitrile]
28 | 500 to 5000 | 500 to 5000 | < 500 |  |  |  | C[C@H](Nc1nc(-c2ccnc3[nH]ccc23)ncc1F)C(=O)NCC(F)(F)F [compound 121, (S)-2-(5-fluoro-2-(1H-pyrrolo[2,3b]pyridin-4-yl)pyrimidin-4-ylamino)-N-(2,2,2-trifluoroethyl)propanamide]
29 |  |  |  | < 500 | < 500 | < 500 | CC1CCCN1C(=O)c1csc(-c2ccnc3[nH]ccc23)n1 (stereo not drawn) [compound 419]
30 |  |  |  | > 5000 | 500 to 5000 | 500 to 5000 | Cc1ccc(F)c(-c2ccnc3[nH]ccc23)c1Cl [compound 244]
31 |  |  |  | < 500 | < 500 | < 500 | CCN(C)C(=O)c1cc(-c2ccnc3[nH]ccc23)c[nH]1 [compound 261]
32 |  |  |  | 500 to 5000 | 500 to 5000 | 500 to 5000 | O=C(c1cc(-c2ccnc3[nH]ccc23)c[nH]1)N1CCC(O)C1 (stereo not drawn) [compound 366]
33 |  |  |  | < 500 | 500 to 5000 | < 500 | Cc1ccc(-c2c(Cl)cnc3[nH]ccc23)s1 [compound 140]
34 |  |  |  | 500 to 5000 | 500 to 5000 | 500 to 5000 | CCOC(=O)C1CCN(C(=O)c2cc(-c3ccnc4[nH]ccc34)c[nH]2)CC1 [compound 364]
